# Data from patent US10149885B2, “Method of treatment or prophylaxis of infections of the eye” (STARPHARMA PTY LIMITED, priority 2012, dated 2018).
# Where two headings read alike, the source gives them in different places.
# What was measured:
# [1] = test system: Mobiluncus curtisii ATCC 35241 (MMX 4145); test: Serial passage resistance development, MIC; assay type: cell-based; conditions: for MIC: Mobiluncus curtisii
# [2] = test system: Gardnerella vaginalis ATCC 14018 (MMX 4153); test: Serial passage resistance development, MIC; assay type: cell-based; conditions: for MIC: Gardnerella vaginalis
# [3] = test system: Adenovirus; test: Plaque reduction neutralization test (NR), positive control, subtype not given; assay type: cell-based; conditions: unidentified adenovirus
# Procedure: (§1) The Plaque reduction neutralization test (NR) is used to quantify the ability of a dendrimer to neutralize/inactivate virus. The dendrimer solution to be tested is diluted and mixed with a viral suspension. This is incubated to allow the dendrimer to react with the virus. This is poured over a confluent monolayer of host cells. The surface of the cell layer is covered in a layer of agar or carboxymethyl cellulose to prevent the virus from spreading. The concentration of plaque forming units can be estimated by the number of plaques (regions of infected cells) formed after a few days. Depending on the virus, the plaque forming units are measured by microscopic observation, fluorescent labelled antibodies or specific dyes that react with infected cells. The concentration of dendrimer to reduce the number of plaques by 50% compared to the dendrimer free virus gives the EC50 value.
# Ribivirin was included as a positive control.
# [4] = test system: Lactobacillus acidophilus MMX 5716; test: Serial passage resistance development, MIC; assay type: cell-based; conditions: for MIC: Lactobacillus acidophilus
# [5] = test system: Prevotella bivia MMX 3447; test: Serial passage resistance development, MIC; assay type: cell-based; conditions: for MIC: Prevotella bivia
# [6] = test system: Ad5 McEwen; test: In vivo treatment of adenoviral eye infection, ocular cultures titred by plaque assay; parameters: species or system NZW female rabbits; conditions: 0.5% cidofovir in saline, 37 μL per eye twice a day, n = 8-10
# Procedure: Following general anesthesia and corneal scarification, NZW female rabbits were inoculated in each eye with 50 μl of 3.0×10^7 PFU/mL (1.5×10^6 PFU/eye) of Ad5 McEwen. At about 3 hours after inoculation, a swab was taken of the tear film and corneal and conjunctival surfaces into tubes containing 1 mL of outgrowth media, and cultured for adenovirus.
# The rabbits were then divided into 3 groups: 3% SPL7013 (n=5), Vehicle (n=5) and 0.5% cidofovir in saline as positive control (n=4). Commencing on day 1, animals were treated in each eye with 37 μL of drug 8 times a day, or 37 μL of control twice a day. Swabs of the tear film and corneal and conjunctival surfaces were taken one hour after treatment.
# Ad5 titers were determined on A549 lung carcinoma cell monolayers using a standard plaque assay. The ocular cultures were diluted and inoculated onto A549 monolayers, and the virus adsorbed for 3 hours. Following adsorption, 1 mL of media plus 0.5% methylcellulose was added to each well, and the plates were incubated at 37° C. in a 5% CO2-water vapor atmosphere for 7 days, then stained with 0.5% gentian violet, and plaques were counted.
# [7] = test system: Adenovirus subtype 8 (ATCC #VR-1640); test: Adenoviral replication titer reduction, drug added after infection (control protocol); assay type: cell-based; conditions: for Percent reduction of adenoviral replication: Adeno-8, A549 cells
# Description: (§2) Adenovirus subtype 5 (ATCC #VR-5) was used with HeLa cells (ATCC #CCL-2), Adenovirus subtype 8 (ATCC #VR-1640) was used with A549 cells (ATCC #CCL-185), Adenovirus subtype 19 (ATCC #VR-254) was used with Chang C cells (ATCC #CCL-20.2) and Adenovirus 37 (ATCC #VR-929) was used with WI-38 cells (ATCC #CCL-75). Both epithelial and fibroblast cell types were used. The recovered virus was titrated in the susceptible cell lines by performing dilutions at 1/10 to 1/100,000 and addition to cells in plates. When cytopathic effect (CPE) was apparent in the virus control, titration plates were classified as positive or negative for cytopathic effect and based on the dilution of the virus applied to the different plates, the 50% tissue-culture infective dose (TCID50) was calculated using the Spearman-Kärber method (Hubert, J J (1984) Spearman-Karber Method in Bioaasay. Hunt, Dubuque, Iowa, pp 65, 66). The TCID50 establishes the dilution at which 50% of the plates show a cytopathic effect (infection). Comparing the TCID50 for sample without SPL7013 with the TCID50 values for samples with different concentrations of SPL7013 provides a measure of the percent reduction of infection achieved by each concentration of SPL7013. This percent reduction represents the activity of SPL7013 against penetration of cells with adenoviruses. A control substance (cidofovir) was tested alongside SPL7013 at 20 μg/mL, 2 μg/mL, 0.2 μg/mL and 0.02 μg/mL (Gordon Y J, Antiviral Research, 1991, 16(1), 11-16). Because cidofovir acts later in the viral replication cycle, target cells were first infected with 0.1 MOI virus and incubated 60 minutes at 37° C.±2° C. Virus was removed, cidofovir was added at the respective concentrations and cells were incubated until CPE reached its maximum. Cells were then lysed and virus was titrated as described above.
# [8] = test system: Adenovirus 37 (ATCC #VR-929); test: as above; assay type: cell-based; conditions: for Percent reduction of adenoviral replication: Adeno-37, WI-38 cells
# Description: as §2
# [9] = test system: Adenovirus subtype 5 (ATCC #VR-5); test: as above; assay type: cell-based; conditions: for Percent reduction of adenoviral replication: Adeno-5, HeLa cells
# Description: as §2
# [10] = test system: Adenovirus subtype 19 (ATCC #VR-254); test: as above; assay type: cell-based; conditions: for Percent reduction of adenoviral replication: Adeno-19, Chang C cells
# Description: as §2
# [11] = test system: Adeno-1; test: Plaque reduction neutralization test (NR); assay type: cell-based, Adenovirus; conditions: Adeno-1/NR
# Procedure: as §1
# [12] = test system: Adeno-1; test: Cytopathic assay (CPE); assay type: cell-based, Adenovirus; conditions: Adeno-1/CPE
# Procedure: For the Cytopathic assay (CPE) Plates of cells were incubated with the respective adenovirus subtype and drug at different drug concentrations. Cells were incubated until a Cytopathic effect was clearly observed in plates where cells and virus were plated without drug. In plates where drug was added, the cytopathic effect was quantified using a light microscope and expressed as 0% (no effect) up to 100% (effect as strong as in the no drug control plates). CPE readings were plotted against the drug concentration and the EC50 value was determined as the drug concentration where 50% CPE was observed.
# [13] = test system: Adeno-5; test: Plaque reduction neutralization test (NR); assay type: cell-based, Adenovirus; conditions: Adeno-5/NR
# Procedure: as §1
# [14] = ATCC14018, read-out: MIC after serial passage
# [15] = ATCC14018, read-out: MIC at baseline
molecule,measurement,setting,value
Cc1ncc([N+](=O)[O-])n1CCO [Metronidazole],MIC,"[1]; ATCC35241, read-out: MIC after serial passage",> 128 µg/mL
same,MIC,"[1]; ATCC35241, read-out: MIC at baseline",8 µg/mL
same,Fold increase of MIC,[1]; by passage 5,> 16 fold
same,MIC,[2]; [14],> 128 µg/mL
same,MIC,[2]; [15],4 µg/mL
same,Fold increase of MIC,[2]; by passage 7,> 64 fold
NC(=O)c1ncn([C@@H]2O[C@H](CO)[C@@H](O)[C@H]2O)n1 [Ribavirin],EC50,[3],10 µg/mL
CO[C@H]1/C=C/O[C@@]2(C)Oc3c(C)c(O)c4c(O)c(c5c(nc6cc(C)ccn65)c4c3C2=O)NC(=O)/C(C)=C\C=C\[C@H](C)[C@H](O)[C@@H](C)[C@@H](O)[C@@H](C)[C@H](OC(C)=O)[C@@H]1C [Rifaximin],Change of MIC during passage (in words),[1]; 10 serial passages,No apparent increase
same,MIC,"[4]; MMX5716, read-out: MIC after serial passage",64 µg/mL
same,MIC,"[4]; MMX5716, read-out: MIC at baseline",1 µg/mL
same,Fold increase of MIC,[4]; by passage 9,64 fold
same,MIC,"[5]; MMX3447, read-out: MIC after serial passage",0.12 µg/mL
same,MIC,"[5]; MMX3447, read-out: MIC at baseline",0.03 µg/mL
same,Fold increase of MIC,[5]; passage number not given,4 fold
same,MIC,[2]; [14],128 µg/mL
same,MIC,[2]; [15],0.06 µg/mL
same,Fold increase of MIC,[2]; by passage 9,> 2000 fold
Nc1ccn(C[C@@H](CO)OCP(=O)(O)O)c(=O)n1 [cidofovir],% Ad5 -Positive cultures,[6]; Day 0 (before treatment),100%
same,% Ad5 -Positive cultures,[6]; Day 1,100%
same,% Ad5 -Positive cultures,[6]; Day 3,100%
same,% Ad5 -Positive cultures,[6]; Day 4,75%
same,Percent reduction of adenoviral replication,[7]; cidofovir 0.02 μg/mL,90.00%
same,Percent reduction of adenoviral replication,[7]; cidofovir 0.2 μg/mL,98.22%
same,Percent reduction of adenoviral replication,[7]; cidofovir 2 μg/mL,98.67%
same,Percent reduction of adenoviral replication,[7]; cidofovir 20 μg/mL,99.00%
same,IC50,"[7]; unidentified adenovirus, Adeno-8, estimated, molar basis (279 g/mol)",112 nM
same,Percent reduction of adenoviral replication,[8]; cidofovir 0.02 μg/mL,0.00%
same,Percent reduction of adenoviral replication,[8]; cidofovir 0.2 μg/mL,57.83%
same,Percent reduction of adenoviral replication,[8]; cidofovir 2 μg/mL,99.99%
same,Percent reduction of adenoviral replication,[8]; cidofovir 20 μg/mL,>99.99%
same,IC50,"[8]; unidentified adenovirus, Adeno-37, estimated, molar basis (279 g/mol)",112 nM
same,Percent reduction of adenoviral replication,[9]; cidofovir 0.02 μg/mL,68.38%
same,Percent reduction of adenoviral replication,[9]; cidofovir 0.2 μg/mL,82.22%
same,Percent reduction of adenoviral replication,[9]; cidofovir 2 μg/mL,86.66%
same,Percent reduction of adenoviral replication,[9]; cidofovir 20 μg/mL,90.00%
same,IC50,"[9]; unidentified adenovirus, Adeno-5, estimated, molar basis (279 g/mol)",559 nM
same,Percent reduction of adenoviral replication,[10]; cidofovir 0.02 μg/mL,0.00%
same,Percent reduction of adenoviral replication,[10]; cidofovir 0.2 μg/mL,0.00%
same,Percent reduction of adenoviral replication,[10]; cidofovir 2 μg/mL,43.77%
same,Percent reduction of adenoviral replication,[10]; cidofovir 20 μg/mL,94.38%
same,IC50,"[10]; unidentified adenovirus, Adeno-19, estimated, molar basis (279 g/mol)",52400 nM
[BHALys][Lys]32deoxycholicacid[NHCSNH-4-ph-SO3Na]63,EC50,[11],10 µg/mL
same,EC50,[12],20 µg/mL
"[NH3][PAMAM]2[CSNH-3,5-Ph(SO3Na)2]24",EC50,[13],150 µg/mL
"[NH3][PAMAM]4NHCSNH-2-naphth-5,7-(SO3Na)2]24",EC50,[12],20 µg/mL
